The term IC50 denotes the concentration that gives 50% inhibition. What is called EC50 is the concentration needed to bring the measured effect to its halfway point. A high value points to weaker potency.

Here are results for two molecules from patent US20250129101A1, “Compound, Pharmaceutical Composition Comprising the Same and Method for Treating Cancer Using the Same” (NATIONAL TSING HUA UNIVERSITY, priority 2023, published 2025).

Data set [1] deals with MDA-MB-231 R, MDA-MB-231 S, 4T1 S1, R4, and R8 cells. Description: Cell viability of indicated cell lines, DHTP or 7S9 for 72 hr. It counts as cell-based. The conditions noted are these: MDA-MB-231 R. The procedure: (§1) The cancer cells were cultured in a 96-well plate at a confluence of 1000-2000 cells/well with indicated drugs for specific days. When the time was up, the culture medium in the plate was aspirated and replaced with a prepared CellTiter-Glo reagent/DMEM mixture (1:1 mix of CellTiter-Glo reagent and serum-supplemented DMEM). After incubation for 10 min, the luminescence (proportional to the number of living cells) was measured with an ELISA plate reader to determine the cell viability.

Another data set deals with T1, KIF2A (Homo sapiens, UniProt O00139).
T1 construct: KIF2A (181-562 a.a.); 6xHis (C); made in house; host or cells: E. coli BL21 (DE3), pET-28a
T1 sequence (O00139 181-562): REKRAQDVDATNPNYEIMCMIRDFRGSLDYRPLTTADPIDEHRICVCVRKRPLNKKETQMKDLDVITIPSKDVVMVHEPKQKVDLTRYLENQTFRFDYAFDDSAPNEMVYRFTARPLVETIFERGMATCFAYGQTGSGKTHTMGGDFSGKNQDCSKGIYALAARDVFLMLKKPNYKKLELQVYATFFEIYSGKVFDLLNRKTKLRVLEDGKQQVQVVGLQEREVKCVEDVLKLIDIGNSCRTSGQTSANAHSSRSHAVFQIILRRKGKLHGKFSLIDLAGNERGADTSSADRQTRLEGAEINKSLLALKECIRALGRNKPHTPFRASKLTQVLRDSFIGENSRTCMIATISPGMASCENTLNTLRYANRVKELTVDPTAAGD
Nature of the data set: In vitro kinesin assay, KIF2A. It counts as biochemical. The conditions noted are these: 50 μM (FIG. 4I). The protocol:
(§2) In vitro kinesin activity was measured using malachite green-based phosphate colorimetric assay (BioVision). […] The microtubules from porcine brain tubulin (Cytoskeleton) or purified from HEK293 cells in Free-style medium (293Fs) were dissolved in the BRB80 buffer (80 mM PIPES pH 6.8, 1 mM EGTA, 1 mM MgCl2, 1 mM GTP, 1 mM DTT, and 10% DMSO) at 37° C. for 2 hr. Phosphates released from kinesin-mediated ATP hydrolysis was measured by adding 30 μL of the phosphate colorimetric reagent (BioVision), incubated for 10 min, and then measured with absorbance at 650 nm.
(§3) Constructs of sN+M regions of KIF2C (216-598 a.a.), KIF2A (181-562 a.a.) and KIF2B (171-553 a.a.) with C-terminal 6×His tag were subcloned into pET-28a vector and expressed in BL21 (DE3) E. coli cells (Novartis) cultured in Luria-Bertani medium supplemented with 50 ug/mL kanamycin at 37° C. After induction with 0.8 mM IPTG for 18 hr at 20° C., the cells were pelleted by centrifugation at 6000 rpm for 30 min at 10° C. The collected pellets were resuspended in 30 mL of buffer A (20 mM Tris-HCl pH 7.5, 500 mM NaCl, 10 mM imidazole, 1% CHAPS, and 1 mM PMSF) and next subjected to a high-pressure homogenizer (EmulsiFlex-C3) for cell lysis. After removing the cell debris by centrifugation at 13000 rpm for 30 min at 10° C., the recombinant Kinesin-13 in the supernatant was purified using nickel affinity chromatography. […]

In a further data set the target is T2, KIF2B (Homo sapiens, UniProt Q8N4N8).
T2 construct: KIF2B (171-553 a.a.); 6xHis (C); made in house; host or cells: E. coli BL21 (DE3), pET-28a
T2 sequence (Q8N4N8 171-553): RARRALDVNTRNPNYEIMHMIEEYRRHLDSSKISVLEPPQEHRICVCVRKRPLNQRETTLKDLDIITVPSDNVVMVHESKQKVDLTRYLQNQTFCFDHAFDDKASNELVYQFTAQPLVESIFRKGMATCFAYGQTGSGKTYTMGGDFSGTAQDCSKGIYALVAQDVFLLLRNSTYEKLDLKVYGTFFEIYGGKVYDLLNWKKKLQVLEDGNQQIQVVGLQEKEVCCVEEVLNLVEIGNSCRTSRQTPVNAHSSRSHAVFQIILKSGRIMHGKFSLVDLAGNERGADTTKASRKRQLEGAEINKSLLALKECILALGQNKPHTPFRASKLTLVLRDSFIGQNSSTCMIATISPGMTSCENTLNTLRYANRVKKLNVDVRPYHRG
Nature of the data set: In vitro kinesin assay, KIF2B. It counts as biochemical. The conditions noted are these: 50 μM (FIG. 4I). The protocol:
as §2, §3

The test system of data set [2] is 4T1 cells. Description: Flow cytometry analysis of cell membrane penetration ability. The note with it: 2 hr of drug treatment. It counts as cell-based, mouse. The procedure: To quantify the cell membrane penetration ability of different DHTP analogs, 4T1 cells were collected by trypsin after 2 hr of drug treatment and then transferred into microcentrifuge tubes. 4T1 cells were then resuspended into the FACS buffer (1% FBS, 2 mM EDTA, and 0.05% NaN3 in PBS). After two times of FACS buffer rinsing, these samples were detected by flow cytometry (Cyto FLEX™ FLOW Cytometer). The KO525 (405 nm laser; 525 nm filter) channel was used to detect DHTP and 7S9.
In general terms: In flow cytometry, cells or beads pass a laser one at a time.

The test system of a further data set is MDA-MB-231 cells. Nature of the data set: Cell validation: cytotoxicity in MDA-MB-231 cells (CellTiter-Glo). It counts as cell-based. The method in brief:
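MDA-MB-231 cells were seeded at 2000 cells/well and exposed to compounds for the specified number of days. Medium was then replaced with a 1:1 CellTiter-Glo reagent/serum-supplemented DMEM mix for 10 min, and viability was read as luminescence, proportional to living cell number.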
(In general: ATP-based viability assays read luminescence as a measure of living cells.)

The test system of data set [3] is HeLa cells expressing H2B-mCherry and eGFP-tubulin. Nature of the data set: Live-cell imaging of intracellular microtubule distribution. It counts as cell-based. The protocol: For the microtubule distribution analysis, HeLa cell line stably expressing H2B-mCherry and eGFP-tubulin (a kind gift from Anthony A. Hyman, Max-Planck-Institute for Molecular Cell Biology and Genetics, Dresden, Germany) were treated with KIF2C inhibitors (10 μM DHTP or 10 μM 7S9) during imaging. Live-cell imaging was conducted on a Nikon T1 inverted fluorescence microscope (Nikon) with a 60× oil objective (Nikon), a Prime camera (Photometrics), and 37° C., 5% CO2 heat stage (Live Cell Instrument). Microtubule morphological changes were imaged at 3-min intervals. Images were obtained using ImageJ software processed with Gaussian Blur to remove the noise.

The next data set addresses T3, KIF2C (Homo sapiens, UniProt Q99661).
T3 construct: KIF2C (216-598 a.a.); 6xHis (C); made in house; host or cells: E. coli BL21 (DE3), pET-28a
Nature of the data set: In vitro validation: KIF2C kinesin activity, malachite green-based phosphate colorimetric assay. It counts as biochemical. The essentials: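 KIF2C sN+M construct (aa 216-598, C-terminal 6×His, E. coli-expressed) ATPase activity with microtubules from porcine brain tubulin or HEK293 (293Fs) cells in BRB80 (80 mM PIPES pH 6.8, 1 mM GTP, 10% DMSO), 37° C for 2 hr. Released phosphate detected by malachite green reagent, 10 min, A650.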

Data set [4] relates to 4T1 cells. Nature of the data set: In vivo tumor growth inhibition, 4T1 syngeneic model. The arrangement: species or system mouse. The conditions noted are these: 4T1 tumors, BALB/c mice, paclitaxel 5 mg/kg intraperitoneally, 5on/2off two cycles. The protocol: (§4) The mice were housed at the National Health Research Institute (NHRI) Animal Center in accordance with the Institutional Animal Care and Use Committee procedures and guidelines. The 4T1-derived cells, including 4T1, 4T1 R4, and 4T1 R8, used for implantation were harvested during log phase growth and resuspended in phosphate-buffered saline. Each mouse was injected s.c. in the right flank with 5×10^5 cells. After tumor size reached 60-100 mm 3 (D1), mice were divided into groups and received treatment with vehicle or different compounds alone or in combinations. Tumor size, in mm 3, was measured twice per week and calculated from Tumor volume=(w 2×1)/2, where w=width and 1=length in mm of the tumor. The values of tumor size were expressed as mean±SEM.

For the next data set, the system named is 4T1 R4. Description: In vivo tumor growth inhibition, 4T1 R4 syngeneic model. On the set-up: species or system mouse. The note with it: R4 tumors, BALB/c mice, paclitaxel 15 mg/kg intraperitoneally, 5on/2off two cycles. The procedure:
as §4

Data set [5] has as its system 4T1 S1 cells. Description: Colony formation assay, 4T1 S1 cells. The conditions noted are these: 400 nM paclitaxel. It counts as cell-based, mouse. The protocol:
To assess the long-term survival of breast cancer cell lines following the treatment of KIF2C knockdown or inhibition, the cells trypsinized into single-cell suspension were homogeneously seeded in 6-well cell culture plates at a density of 5000 cells per dish, supplemented with 2× complete medium (50% 4×DMEM, 20% FBS, 2% penicillin-streptomycin, ddH2O, and 2× glutaMAX™), agarose (0.6% for bottom agar layer; 0.3% for top cell layer), ddH2O, and DMEM. After incubation for 24 hr, cells were treated with indicated drugs, such as DMSO, KIF2C inhibitors, or chemotherapy drugs, and then cultured at 37° C. incubator in an atmosphere of humidified air with 5% CO2 for a further 14-30 days. When the cell colonies grew to appropriate sizes, the culture mediums were replaced with PBS for washing. After that, the plates were stained with 10% crystal violet and analyzed using Image J.

For a further data set, the system named is MDA-MB-231 R. Description: Cell viability assay, chemoresistant MDA-MB-231 R cells. The note with it: MDA-MB-231 R versus S cells, 72 hr paclitaxel. It counts as cell-based. The procedure: as §1
(§5) The expression levels of KIF2A, KIF2B, and KIF2C in these cell lines were compared using Western blotting.

A further data set has as its system 4T1 R cells. Description: Cell viability assay, chemoresistant 4T1 R cells. It counts as cell-based, mouse. The note with it: 4T1 R versus S cells, 72 hr paclitaxel. The procedure:
as §1, §5

Data set [6] relates to 4T1 S1 cells. Description: Cell viability assay, 4T1 S1 cells. It counts as cell-based. The note with it: Mus musculus, 72 hr, read-out: IC50, single treatment. The procedure: (§6) MCF-7, MDA-MB-231, MDA-MB-468, Hs578T, 4T1, and HeLa cell lines stably expressing H2B-mCherry and eGFP-tubulin (kindly provided by Dr. Anthony A. Hyman, Max-Planck-Institute for Molecular Cell Biology and Genetics, Dresden, Germany) were cultured in high-glucose Dulbecco's Modified Eagle Medium (DMEM). SK-BR-3 cells were cultured in McCoy's Modified 5a Medium. Hs578T cells were cultured in high-glucose DMEM supplemented with an additional 0.01 mg/mL bovine insulin. […] All mentioned media were supplemented with 10% fetal bovine serum (Gibco) and 1% Penicillin/Streptomycin (Corning), and cells were incubated at 37° C. in a humidified atmosphere containing 5% CO2. HEK293 cells were cultured in HE300 medium (GMEP incorporated, Japan) and maintained in suspension culture with 125 rpm and 8% CO2.
as §1

Another data set relates to 4T1 R8 cells. Description: Cell viability assay, 4T1 R8 cells. It counts as cell-based, mouse. The protocol:
as §6, §1

The subject of data set [7] is 4T1 S1 cells. Nature of the data set: Time-lapse imaging of mitotic progression, 4T1 S1 cells. The note with it: paclitaxel (400 nM, FIG. 6D). It counts as cell-based, mouse. The protocol: To investigate the role of KIF2C in cell cycle progression, 4T1 cells were cultured in the 4-well chamber slide with about 50% confluence. The culture medium was replaced with a CO2-independent medium (Gibco) supplemented with 10% fetal bovine serum (Biological Industries) and 1% penicillin-streptomycin (Biowest). Then, each well of the chamber slide was treated with indicated drugs, such as DMSO, KIF2C inhibitors, or chemotherapy drugs. After that, the chamber slide was maintained in the microscope stage incubator with the supplement of humidified air with 5% CO2 at 37° C. Multiple-positional time-lapse imaging was performed using an automated Leica DM16000 inverted microscope equipped with HCX PL FL 20×/0.4 and EMCCD camera (Andor Luca R, Belfast, UK). Sequential differential interference contrast (DIC) images of cells obtained at indicated intervals were further analyzed using Metamorph software (Molecular Devices).

A further data set has as its system 4T1 R4 cells. Description: Cell viability assay, 4T1 R4 cells. It counts as cell-based, mouse. The protocol: as §6, §1
Where [8] appears, read: 72 hr, MTA with 2 μM 7S9, read-out: IC50 (nM), Combination.
The mark [9] stands for this setting: Mus musculus, 72 hr, drug alone, read-out: IC50 (nM), Single.
The mark [10] stands for this setting: Mus musculus, read-out: Paclitaxel IC50 (nM), C4 combination, with 10 μM C4.

Like-named read-outs stand apart in the source and are kept apart here.

T3 sequence (Q99661 216-598): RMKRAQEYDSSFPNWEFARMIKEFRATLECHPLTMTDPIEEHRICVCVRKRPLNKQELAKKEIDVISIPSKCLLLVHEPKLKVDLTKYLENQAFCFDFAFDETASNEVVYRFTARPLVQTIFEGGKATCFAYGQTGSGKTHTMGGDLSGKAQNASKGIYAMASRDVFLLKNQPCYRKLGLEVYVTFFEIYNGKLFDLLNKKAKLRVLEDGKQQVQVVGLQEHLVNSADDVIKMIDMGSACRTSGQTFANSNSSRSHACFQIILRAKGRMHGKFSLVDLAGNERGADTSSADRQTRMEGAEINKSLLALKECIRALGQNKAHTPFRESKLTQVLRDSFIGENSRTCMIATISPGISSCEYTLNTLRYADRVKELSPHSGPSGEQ

As for `CC1=C(C(=O)OC(C)C)C(c2ccc(Cl)cc2)n2c(s/c(=C\c3ccc(OCC(=O)O)cc3)c2=O)=N1` (stereo not drawn) [1S0 (1), reference compound], in data set [1], the “cytotoxicity (in words)” value is “not cytotoxic”. Also, on KIF2A, the “inhibitory effect against KIF2A (in words)” value was “inhibited all three members of the kinesin-13 family”. Also, the “inhibitory effect against KIF2B (in words)” value on KIF2B is given as “inhibited all three members of the kinesin-13 family”. Moreover, the “cell penetration, fluorescence signal at 510 nm emission (in words)” value in the data set with 4T1 cells [2] is given as “no fluorescence signals”. In the data set on MDA-MB-231 cells (72 hr), the “cytotoxicity on MDA-MB-231 cells (in words)” value is “not cytotoxic”. In addition, the IC50 with MDA-MB-231 cells (Homo sapiens, cytotoxicity in MDA-MB-231 cells) was > 50 µM. Also, in data set [3], the “intracellular microtubule distribution phenotype (in words)” value is given as “tubulin aggregation phenotype was not detected”. The “inhibitory effect against KIF2C (in words)” value against KIF2C (50 μM (FIG. 4I)) is reported as “inhibited all three members of the kinesin-13 family”. Besides, the “inhibition of KIF2C kinesin activity (in words)” value against KIF2C (100 μM (FIG. 4B)) was “could inhibit KIF2C kinesin activity”. Moreover, the EC50 at KIF2C (concentration that inhibits 50% of KIF2C activity) is < 10 µM.

`CC(=O)O[C@H]1C(=O)[C@@]2(C)[C@H]([C@H](OC(=O)c3ccccc3)[C@]3(O)C[C@H](OC(=O)[C@H](O)[C@@H](NC(=O)c4ccccc4)c4ccccc4)C(C)=C1C3(C)C)[C@]1(OC(C)=O)CO[C@@H]1C[C@@H]2O` [Paclitaxel, paclitaxel]: the tumor growth inhibition was found to be 31.3% in the data set on 4T1 cells [4] and 41.7% in the data set with 4T1 R4. Also, in the data set on 4T1 S1 cells [5], the “suppression of colony formation” value is 80%. Further, the increase in chemoresistance in the data set on MDA-MB-231 R was found to be 2.5 fold; with 4T1 R cells, 11.8 fold. The “intracellular microtubule distribution phenotype (in words)” value in data set [3] was “significant accumulation of bundled microtubules at the cell periphery”. Also, the concentration for half-maximal inhibition (IC50) with 4T1 S1 cells [6] is 0.062 µM; in the data set with 4T1 R8 cells (setting [8]) it was 6.1 nM; in the data set with 4T1 R8 cells (setting [9]) it was 1120 nM; in the data set on 4T1 R8 cells (setting [10]), 157 nM; with 4T1 R4 cells (setting [8]) it was 6.4 nM; with 4T1 R4 cells (setting [9]) it was 1540 nM. For the same molecule, in the data set on 4T1 R4 cells (setting [10]), the half-inhibitory concentration (IC50) was found to be 217 nM. In the data set with 4T1 S1 cells [7], the “cells died in mitosis” value is listed as “Approximately 40%”.
